The values below come from PubChem BioAssay (NCI).

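Compound exposure: 48 hours, 5 concentrations, 96-well plates. GI50: concentration for 50% inhibition of growth. TGI: total growth inhibition.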 *1 amine or outer side, *2 acyl side, *3 side chain or, on linkers, in order; H or OH if unused. Where a SMILES comes first, the peptide text is derived from it. CO = O=C([*:1])[*:2] Where only a bound is given, the exact number is not on record here.

Common to all, as to test: growth of human tumour cells (NCI), 48 h
For assay [1], the system named is 786-0 renal.
Assay [2] relates to U251 CNS.
For assay [3], the system named is KM12 colon.
Assay [4] has as its system TK-10 renal.
Assay [5] relates to CAKI-1 renal.
Assay [6] has as its system RXF 393 renal.
In assay [7] the test system is MOLT-4 leukemia.
In assay [8] the test system is NCI-H460 lung.
For assay [9], the system named is OVCAR-3 ovarian.
Assay [10] deals with PC-3 prostate.

On to `COc1ccc(C(=O)O)c2c(=O)c3ccccc3[nH]c12`, for which the TGI in assay [1], in assay [2], in [3], in assay [4], in [5] and in assay [6] was over 100 µM in each case. For the same molecule, the TGI in assay [7] and in assay [8] was over 100 µM throughout.

For the molecule `CC(C)C(NC(=O)C(CCCN=C(N)N)NC(=O)NC(Cc1ccccc1)C(=O)O)C(=O)NC(C=O)CCCN=C(N)N` (stereo not drawn) ({Phe-CO}-Arg-Val-Arg-aldehyde; configuration not given here), the GI50 in [1], in assay [2], in assay [3], in [9], in assay [4] and in assay [10] was over 5 µM throughout. Besides, the GI50 in [5] and in assay [8] was over 5 µM in each case. The TGI in assay [1], in assay [2], in assay [3], in assay [9], in assay [4] and in assay [10] was over 5 µM throughout. Moreover, the TGI in assay [5] and in assay [8] was over 5 µM each time.

With `Cn1cc(C(=O)/C(Cl)=C(\Cl)C(=O)O)c2ccccc21`, the TGI in assay [1], in assay [2], in [3], in assay [9], in [4] and in assay [5] was over 100 µM in each case. Also, the TGI in assay [6], in assay [7] and in assay [8] was over 100 µM throughout.

As for `CO/C=C/c1cc2c(cc1C(OC)OC)OCO2`, the TGI was over 100 µM in assay [1]; over 100 µM in assay [2]; over 100 µM in assay [3]; 80.9 µM in [9]; over 100 µM in [4]; over 100 µM in assay [5]. In addition, the TGI in assay [6], in assay [7] and in assay [8] was over 100 µM in each case.

On to `O=C1OC(c2ccccc2)(c2ccccc2)CC1CN1CCOCC1` (stereo not given), for which the TGI in assay [1] was 30.4 µM; in [2], 49.7 µM; in assay [3], 30.8 µM; in [9] it was 28.9 µM; in [4] it was 31.6 µM; in [7], 65.4 µM. This molecule gave a TGI in assay [8] of over 100 µM.

As to `N=c1oc2cc(O)c(O)cc2cc1C(N)=O`, the TGI in assay [1], in assay [2], in assay [3], in assay [9], in assay [4] and in assay [5] was over 100 µM in each case. Further, the TGI in assay [6], in assay [7] and in assay [8] was over 100 µM in each case.

As to `Cc1ccc(NC(=O)/C(=N/NC(=O)CC#N)C2C(=O)N(c3ccccc3)N=C2N)cc1C` (stereo not given), the TGI in [1], in [2], in assay [3], in assay [9], in assay [4] and in assay [5] was over 100 µM in each case. The TGI in assay [6], in [7] and in assay [8] was over 100 µM throughout.

For `NC(=S)N/N=C1\C(=O)N(c2cccc([N+](=O)[O-])c2)C(=O)C1C(=O)Nc1cccc([N+](=O)[O-])c1` (stereo not given), the TGI in assay [1], in assay [2], in assay [9], in assay [4], in [5] and in assay [6] was over 100 µM in each case. Besides, in assay [7], the TGI was over 100 µM.

On to `NC1=NN(c2ccccc2)C(=O)C1C(=O)C(=O)Nc1cccc(C(F)(F)F)c1` (stereo not given), for which the TGI in assay [1], in assay [2], in assay [3], in [9], in [4] and in assay [5] was over 100 µM each time. Besides, the TGI in assay [7] and in [8] was over 100 µM in each case.

As for `CC(=O)Oc1cc2c(=O)oc3c(OC(C)=O)c(OC(C)=O)c(OC(C)=O)c4c(=O)oc(c1OC(C)=O)c2c34`, the TGI in [1], in [2], in assay [3], in assay [9], in assay [4] and in assay [5] was over 100 µM throughout. The TGI in assay [6] is 32 µM; in assay [7] it was over 100 µM; in [8] it was over 100 µM.

`CC1CC(C)C(=O)C(C(=O)CC2CC(=O)NC2=O)C1` (stereo not given): the TGI in assay [1], in assay [2], in assay [3], in assay [9], in assay [4] and in assay [5] was over 100 µM in each case. Moreover, the TGI in assay [6] and in [8] was over 100 µM each time.

Regarding `C/C(=N\[N+](C)(C)C)C(c1ccccc1)C1(c2ccccc2)C(c2ccccc2)=C1c1ccccc1` (stereo not given), the TGI in [1], in assay [2], in [3], in assay [9], in assay [4] and in assay [5] was over 100 µM throughout. Further, the figures for the TGI in assay [6], in assay [7] and in [8] were 73 µM, over 100 µM and over 100 µM, respectively.

For `O=C(Nc1ccc(N=Nc2ccccc2)cc1)Sc1ccccc1C(=O)O`, the TGI in assay [1], in assay [2], in assay [3], in assay [9], in [4] and in assay [5] was over 100 µM throughout. Also, the TGI in assay [6], in assay [7] and in assay [8] was over 100 µM in each case.

As to `CCC12CC[C@H](C#N)N3CCc4c(n(c5ccccc45)C(=O)C1)C32` (stereo not given in full), the TGI in assay [1] was found to be 34.1 µM; in assay [2], 29.8 µM; in assay [3] it was 22.5 µM; in assay [9], 29 µM; in assay [4], 46.8 µM; in [5], 34.3 µM. The TGI stood at 29.6 µM in assay [6], 52 µM in assay [7] and 33.8 µM in assay [8].

As for `O[C@H]1[C@H]2[C@H](O)CCCN2C[C@H]1O`, the TGI in assay [1], in assay [2], in assay [3], in [9], in assay [4] and in [5] was over 100 µM each time. In addition, the TGI in [6], in assay [7] and in assay [8] was over 100 µM throughout.
